The structures appear in SMILES notation. pIC50: −log10 of the molar value.

The test system of one experiment is HCT116 MTAP null cells. The experiment is described as follows: HCT116 MTAP null cell line proliferation / cell viability (CellTiter-Glo, 6 days). The class given is cell-based. Particulars: 144 h; HCT116 MTAP null cells, 6 days treatment, CellTiter-Glo cell viability; read-out: HCT-116 MTAP null IC50. In a few lines: (§1)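 CellTiter-Glo luminescence read after 6 days of compound exposure in parental and MTAP-null HCT116 cells grown in RPMI 1640/10% FBS. Dilution series: 1:3 steps, 8–9 points, top 1 or 10 μM; or 1:2 steps, 22 points, top 10 or 50 μM. IC50 = curve transit through 50% of control.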
For orientation: Cellular ATP, detected with luciferase, serves as a proxy for viable cell number.

The test system of the next experiment is HCT116 WT cells. Put plainly: HCT116 WT (parent) cell line proliferation / cell viability (CellTiter-Glo, 6 days). The class given is cell-based. The following applies: Homo sapiens, HCT-116, 144 h, 6 days treatment. A digest of the protocol:
as §1

Usually pIC50 stands for the negative decadic logarithm of the IC50, by convention in mol/L. For `CN(C(=O)c1ccc2nc(N)c3cnn(C)c3c2c1)[C@@H]1COc2cc(-c3cnn(C4CC4)c3)ccc21` [Example 640, 4-amino-N-((3S)-6-(1-cyclopropyl-1H-pyrazol-4-yl)-2,3-dihydro-1-benzofuran-3-yl)-N,1-dimethyl-1H-pyrazolo[4,3-c]quinoline-8-carboxamide], the values for the pIC50 with HCT116 MTAP null cells and with HCT116 WT cells were 7.80 and 5.69, respectively.
Consider `CN(C(=O)c1ccc2nc(N)c3cnn(C)c3c2c1)[C@@H]1COc2cc(-c3cc(F)cc(F)c3)ccc21` [Example 641, 4-amino-N-((3S)-6-(3,5-difluorophenyl)-2,3-dihydro-1-benzofuran-3-yl)-N,1-dimethyl-1H-pyrazolo[4,3-c]quinoline-8-carboxamide], for which the pIC50 with HCT116 MTAP null cells is 7.38; in the experiment on HCT116 WT cells it was 5.80.
On the same counts, the results for `CN(C(=O)c1ccc2nc(N)c3cnn(C)c3c2c1)[C@@H]1COc2cc(-c3ccc(F)nc3F)ccc21` [Example 642, 4-amino-N-((3S)-6-(2,6-difluoro-3-pyridinyl)-2,3-dihydro-1-benzofuran-3-yl)-N,1-dimethyl-1H-pyrazolo[4,3-c]quinoline-8-carboxamide] are 8.30 and 6.27.
As for `CN(C(=O)c1ccc2nc(N)c3cnn(C)c3c2c1)[C@@H]1COc2cc(-c3ccnc(F)c3F)ccc21` [Example 643, 4-amino-N-((3S)-6-(2,3-difluoro-4-pyridinyl)-2,3-dihydro-1-benzofuran-3-yl)-N,1-dimethyl-1H-pyrazolo[4,3-c]quinoline-8-carboxamide], the pIC50 is 8.30 with HCT116 MTAP null cells and 6.64 in the experiment with HCT116 WT cells.
Consider `CN(C(=O)c1ccc2nc(N)c3cnn(C)c3c2c1)[C@@H]1COc2cc(-c3cnc4c(c3)CC(=O)N4)ccc21` [Example 644, 4-amino-N,1-dimethyl-N-((3S)-6-(2-oxo-2,3-dihydro-1H-pyrrolo[2,3-b]pyridin-5-yl)-2,3-dihydro-1-benzofuran-3-yl)-1H-pyrazolo[4,3-c]quinoline-8-carboxamide], for which the pIC50 in the experiment with HCT116 MTAP null cells is 7.57; in the experiment with HCT116 WT cells it was 5.45.
On the same counts, the results for `CN(C(=O)c1ccc2nc(N)c3cnn(C)c3c2c1)[C@@H]1COc2cc(-c3cc(C(F)(F)F)[nH]n3)ccc21` [Example 645, 4-amino-N,1-dimethyl-N-((3S)-6-(5-(trifluoromethyl)-1H-pyrazol-3-yl)-2,3-dihydro-1-benzofuran-3-yl)-1H-pyrazolo[4,3-c]quinoline-8-carboxamide] are 7.62 and 5.83.
With `CNC(=O)c1ccc(-c2ccc3c(c2)OC[C@H]3N(C)C(=O)c2ccc3nc(N)c4cnn(C)c4c3c2)cn1` [Example 646, 4-amino-N,1-dimethyl-N-((3S)-6-(6-(methylcarbamoyl)-3-pyridinyl)-2,3-dihydro-1-benzofuran-3-yl)-1H-pyrazolo[4,3-c]quinoline-8-carboxamide], the negative-log IC50 (pIC50) was 8.52 with HCT116 MTAP null cells and 6.48 in the experiment on HCT116 WT cells.
On to `CC(=O)Nc1ccc(-c2ccc3c(c2)OC[C@H]3N(C)C(=O)c2ccc3nc(N)c4cnn(C)c4c3c2)cn1` [Example 647, N-((3S)-6-(6-acetamido-3-pyridinyl)-2,3-dihydro-1-benzofuran-3-yl)-4-amino-N,1-dimethyl-1H-pyrazolo[4,3-c]quinoline-8-carboxamide], for which the values for the pIC50 in the experiment on HCT116 MTAP null cells and with HCT116 WT cells were 8.10 and 6.24, respectively.
Turning to `CN(C(=O)c1ccc2nc(N)c3cnn(C)c3c2c1)[C@@H]1COc2cc(-c3cccc(C(F)(F)F)n3)ccc21` [Example 648, 4-amino-N,1-dimethyl-N-((3S)-6-(6-(trifluoromethyl)-2-pyridinyl)-2,3-dihydro-1-benzofuran-3-yl)-1H-pyrazolo[4,3-c]quinoline-8-carboxamide], the negative logarithm of the IC50 (pIC50) in the experiment with HCT116 MTAP null cells is 7.52; with HCT116 WT cells, 5.93.
The like results for `CN(C(=O)c1ccc2nc(N)c3cnn(C)c3c2c1)[C@@H]1COc2cc(-c3cccnc3C(F)(F)F)ccc21` [Example 649, 4-amino-N,1-dimethyl-N-((3S)-6-(2-(trifluoromethyl)-3-pyridinyl)-2,3-dihydro-1-benzofuran-3-yl)-1H-pyrazolo[4,3-c]quinoline-8-carboxamide] were, in that order, 7.74 and 5.98.
The like results for `CN(C(=O)c1ccc2nc(N)c3cnn(C)c3c2c1)[C@@H]1COc2cc(-c3cnccc3C(F)(F)F)ccc21` [Example 650, 4-amino-N,1-dimethyl-N-((3S)-6-(4-(trifluoromethyl)-3-pyridinyl)-2,3-dihydro-1-benzofuran-3-yl)-1H-pyrazolo[4,3-c]quinoline-8-carboxamide] were, in that order, 8.10 and 6.35.
On the same counts, the results for `CN(C(=O)c1ccc2nc(N)c3cnn(C)c3c2c1)[C@@H]1COc2cc(-c3cncc(C(F)(F)F)c3)ccc21` [Example 651, 4-amino-N,1-dimethyl-N-((3S)-6-(5-(trifluoromethyl)-3-pyridinyl)-2,3-dihydro-1-benzofuran-3-yl)-1H-pyrazolo[4,3-c]quinoline-8-carboxamide] are 8.15 and 6.14.
In the case of `CN(C(=O)c1ccc2nc(N)c3cnn(C)c3c2c1)[C@@H]1COc2cc(-c3ccc(C(F)(F)F)cn3)ccc21` [Example 652, 4-amino-N,1-dimethyl-N-((3S)-6-(5-(trifluoromethyl)-2-pyridinyl)-2,3-dihydro-1-benzofuran-3-yl)-1H-pyrazolo[4,3-c]quinoline-8-carboxamide], the pIC50 was 8.22 in the experiment with HCT116 MTAP null cells and 6.54 with HCT116 WT cells.
On the same counts, the results for `CN(C(=O)c1ccc2nc(N)c3cnn(C)c3c2c1)[C@@H]1COc2cc(-c3c(C(F)(F)F)cnn3C)ccc21` [Example 653, 4-amino-N,1-dimethyl-N-((3S)-6-(1-methyl-4-(trifluoromethyl)-1H-pyrazol-5-yl)-2,3-dihydro-1-benzofuran-3-yl)-1H-pyrazolo[4,3-c]quinoline-8-carboxamide] are 7.72 and 6.13.
The like results for `CN(C(=O)c1ccc2nc(N)c3cnn(C)c3c2c1)[C@@H]1COc2cc(-c3cc(C(F)(F)F)nn3C)ccc21` [Example 654, 4-amino-N,1-dimethyl-N-((3S)-6-(1-methyl-3-(trifluoromethyl)-1H-pyrazol-5-yl)-2,3-dihydro-1-benzofuran-3-yl)-1H-pyrazolo[4,3-c]quinoline-8-carboxamide] were, in that order, 8.00 and 6.00.
Take `CN(C(=O)c1ccc2nc(N)c3cnn(C)c3c2c1)[C@@H]1COc2cc(-c3csc(C(F)(F)F)n3)ccc21` [Example 655, 4-amino-N,1-dimethyl-N-((3S)-6-(2-(trifluoromethyl)-1,3-thiazol-4-yl)-2,3-dihydro-1-benzofuran-3-yl)-1H-pyrazolo[4,3-c]quinoline-8-carboxamide]: the values for the negative-log IC50 (pIC50) in the experiment on HCT116 MTAP null cells and in the experiment with HCT116 WT cells were 7.55 and 6.02, respectively.
In the case of `CN(C(=O)c1ccc2nc(N)c3cnn(C)c3c2c1)[C@@H]1COc2cc(-c3cnc(C(F)(F)F)s3)ccc21` [Example 656, 4-amino-N,1-dimethyl-N-((3S)-6-(2-(trifluoromethyl)-1,3-thiazol-5-yl)-2,3-dihydro-1-benzofuran-3-yl)-1H-pyrazolo[4,3-c]quinoline-8-carboxamide], the negative logarithm of the IC50 (pIC50) in the experiment with HCT116 MTAP null cells is 8.22; in the experiment with HCT116 WT cells it was 6.29.
The like results for `CN(C(=O)c1ccc2nc(N)c3cnn(C)c3c2c1)[C@@H]1COc2cc(-c3ccc4c(c3)OC(F)(F)O4)ccc21` [Example 657, 4-amino-N-((3S)-6-(2,2-difluoro-1,3-benzodioxol-5-yl)-2,3-dihydro-1-benzofuran-3-yl)-N,1-dimethyl-1H-pyrazolo[4,3-c]quinoline-8-carboxamide] were, in that order, 7.43 and 5.77.
In the case of `CN(C(=O)c1ccc2nc(N)c3cnn(C)c3c2c1)[C@@H]1COc2cc(-c3ccc(OC(F)(F)F)cc3)ccc21` [Example 658, 4-amino-N,1-dimethyl-N-((3S)-6-(4-(trifluoromethoxy)phenyl)-2,3-dihydro-1-benzofuran-3-yl)-1H-pyrazolo[4,3-c]quinoline-8-carboxamide], the values for the pIC50 in the experiment on HCT116 MTAP null cells and in the experiment on HCT116 WT cells were 7.38 and 6.20, respectively.
The like results for `CN(C(=O)c1ccc2nc(N)c3cnn(C)c3c2c1)[C@@H]1COc2cc(-c3cc(F)cc(OC(F)F)c3)ccc21` [Example 659, 4-amino-N-((3S)-6-(3-(difluoromethoxy)-5-fluorophenyl)-2,3-dihydro-1-benzofuran-3-yl)-N,1-dimethyl-1H-pyrazolo[4,3-c]quinoline-8-carboxamide] were, in that order, 7.60 and 5.89.
With `CN(C(=O)c1ccc2nc(N)c3cnn(C)c3c2c1)[C@@H]1COc2cc(-c3cc(C(F)(F)F)ccc3F)ccc21` [Example 660, 4-amino-N-((3S)-6-(2-fluoro-5-(trifluoromethyl)phenyl)-2,3-dihydro-1-benzofuran-3-yl)-N,1-dimethyl-1H-pyrazolo[4,3-c]quinoline-8-carboxamide], the negative logarithm of the IC50 (pIC50) is 7.82 in the experiment with HCT116 MTAP null cells and 6.18 with HCT116 WT cells.
The like results for `CN(C(=O)c1ccc2nc(N)c3cnn(C)c3c2c1)[C@@H]1COc2cc(-c3ccc(C(F)(F)F)cc3F)ccc21` [Example 661, 4-amino-N-((3S)-6-(2-fluoro-4-(trifluoromethyl)phenyl)-2,3-dihydro-1-benzofuran-3-yl)-N,1-dimethyl-1H-pyrazolo[4,3-c]quinoline-8-carboxamide] were, in that order, 7.85 and 6.32.
On to `CN(C(=O)c1ccc2nc(N)c3cnn(C)c3c2c1)[C@@H]1COc2cc(-c3ccnc(OCC(F)(F)F)c3)ccc21` [Example 662, 4-amino-N,1-dimethyl-N-((3S)-6-(2-(2,2,2-trifluoroethoxy)-4-pyridinyl)-2,3-dihydro-1-benzofuran-3-yl)-1H-pyrazolo[4,3-c]quinoline-8-carboxamide], for which the pIC50 in the experiment on HCT116 MTAP null cells is 7.68; with HCT116 WT cells it was 5.95.

The values are drawn from patent US20240124442A1, “TRICYCLIC-AMIDO-BICYCLIC PRMT5 INHIBITORS” (AMGEN INC., priority 2021, published 2024).
